Test results reported in US9278958B2, “Anti-cancer compounds” (KATHOLIEKE UNIVERSITEIT LEUVEN, priority 2012, dated 2016).
Like-named read-outs stand apart in the source and are kept apart here.

What was measured:
[1] = tested on: CEM cells; assay: Cytostatic assay, CEM; format: cell-based; settings: Homo sapiens, CCRF-CEM
Method: (§1) To each well of a 96-well microtiter plate were added 5-7.5×10^4 cells and a given amount of the test compound. The cells were allowed to proliferate for 48 h to 96 h (depending on the nature of the cell line) at 37° C. in a humidified CO2-controlled atmosphere. At the end of the incubation period, the cells were counted in a Coulter Counter (Coulter Electronics Ltd, Harpenden Herts, United Kingdom).

[2] = tested on: Molt4/C8 cells; assay: Cytostatic assay, Molt4/C8; format: cell-based; settings: Table 2
Method: as §1

[3] = tested on: Sup T1 cells; assay: Cytostatic assay, Sup T1; format: cell-based; settings: Homo sapiens, Table 2, read-out: Cytostatic activity (μM) Sup T 1
Method: as §1

[4] = tested on: MT-2 cells; assay: Cytostatic assay, MT-2; format: cell-based; settings: Homo sapiens, MT2; Table 2
Method: as §1

[5] = tested on: C8166 cells; assay: Cytostatic assay, C8166; format: cell-based; settings: Homo sapiens, Table 2
Method: as §1

[6] = tested on: HUT-78 cells; assay: Cytostatic assay, HUT-78; format: cell-based; settings: Homo sapiens, HuT78; Table 2
Method: as §1

[7] = tested on: MT-4 cells; assay: Cytostatic assay, MT-4; format: cell-based; settings: Homo sapiens, MT4; Table 2
Method: as §1

[8] = tested on: HL60, human leukemia cells; assay: Cytostatic assay, HL-60; format: cell-based; settings: Table 2
Method: as §1

[9] = tested on: U937, human monocytic cells; assay: Cytostatic assay, U937; format: cell-based; settings: U-937, Table 2
Method: as §1

[10] = tested on: THP-1, human monocytic cells; assay: Cytostatic assay, THP-1; format: cell-based; settings: Table 2
Method: as §1

[11] = tested on: Raji, human B-lymphoma cells; assay: Cytostatic assay, Raji; format: cell-based; settings: Table 2
Method: as §1

[12] = tested on: L1210 cells; assay: Cytostatic assay, L1210; format: cell-based; settings: Mus musculus, Table 2
Method: as §1

[13] = tested on: OST TK- osteosarcoma cells; assay: Cytostatic assay, OST TK-; format: cell-based; settings: Homo sapiens; Table 3
Method: as §1

[14] = tested on: MCF-7 mammary carcinoma cells; assay: Cytostatic assay, MCF-7; format: cell-based; settings: Homo sapiens, MCF7; Table 3
Method: as §1

[15] = tested on: FM3A mammary carcinoma cells; assay: Cytostatic assay, FM3A; format: cell-based, murine; settings: Mus musculus, Table 3
Method: as §1

[16] = tested on: HeLa cervix carcinoma cells; assay: Cytostatic assay, HeLa; format: cell-based, human; settings: Homo sapiens; Table 3; read-out: Cytostatic activity (μM) Hela
Method: as §1

[17] = tested on: Caki-1 kidney carcinoma cells; assay: Cytostatic assay, Caki-1; format: cell-based; settings: Homo sapiens, Table 3
Method: as §1

[18] = tested on: Caki-2 kidney carcinoma cells; assay: Cytostatic assay, Caki-2; format: cell-based; settings: Homo sapiens, Table 3
Method: as §1

[19] = tested on: 293T embryonic kidney cells; assay: Cytostatic assay, 293T; format: cell-based; settings: Homo sapiens, HEK-293T; Table 3
Method: as §1

[20] = tested on: HT29 colorectal carcinoma cells; assay: Cytostatic assay, HT29; format: cell-based; settings: Homo sapiens, HT-29; Table 3
Method: as §1

[21] = tested on: U87 glioma cells; assay: Cytostatic assay, U87; format: cell-based; settings: Homo sapiens, U-87 MG; Table 3
Method: as §1

[22] = tested on: HEL embryonic lung fibroblast cells; assay: Cytostatic assay, HEL; format: cell-based; settings: Homo sapiens, Table 3
Method: as §1

[23] = tested on: BAEC aortic endothelial cells; assay: Cytostatic assay, BAEC; format: cell-based, bovine; settings: Bos taurus, Table 3
Method: as §1

[24] = tested on: PC3 (rega) prostate cancer cells; assay: Cytostatic assay, PC3 (rega); format: cell-based; settings: Table 4
Method: as §1

[25] = tested on: BPH-1 (UZ); assay: Cytostatic assay, BPH-1 (UZ); format: cell-based; settings: Homo sapiens, Table 4
Method: as §1

[26] = tested on: DU145 (UZ) prostate cancer cells; assay: Cytostatic assay, DU145 (UZ); format: cell-based; settings: Homo sapiens, DU-145; Table 4
Method: as §1

[27] = tested on: PC-3 (UZ) prostate cancer cells; assay: Cytostatic assay, PC-3 (UZ); format: cell-based; settings: Table 4
Method: as §1

[28] = tested on: LNCaP (UZ) prostate cancer cells; assay: Cytostatic assay, LNCaP (UZ); format: cell-based; settings: Homo sapiens, Table 4
Method: as §1

[29] = tested on: PNT1A (UZ) prostate cells; assay: Cytostatic assay, PNT1A (UZ); format: cell-based; settings: Homo sapiens, Table 4
Method: as §1

[30] = tested on: 22Rv1 (UZ) prostate cancer cells; assay: Cytostatic assay, 22Rv1 (UZ); format: cell-based; settings: Homo sapiens, Table 4
Method: as §1

[31] = tested on: PLC/PRF/5 hepatoma cells; assay: Cytostatic assay, PLC/PRF/5; format: cell-based; settings: Homo sapiens, Table 4
Method: as §1

[32] = tested on: HepG2C3A hepatoma cells; assay: Cytostatic assay, HepG2C3A; format: cell-based; settings: Homo sapiens, HepG2/C3A; Table 4
Method: as §1

[33] = tested on: Huh-7 hepatoma cells; assay: Cytostatic assay, Huh-7; format: cell-based; settings: Homo sapiens, Table 4
Method: as §1

[34] = Table 1a, read-out: IC50 μM (CEM)
[35] = Table 2, read-out: Cytostatic activity (μM) CEM

| Compound | IC50 [1, 34] [µM] | IC50 [1, 35] [µM] | IC50 [2] [µM] | IC50 [3] [µM] | IC50 [4] [µM] | IC50 [5] [µM] | IC50 [6] [µM] | IC50 [7] [µM] | IC50 [8] [µM] | IC50 [9] [µM] | IC50 [10] [µM] | IC50 [11] [µM] | IC50 [13] [µM] | IC50 [14] [µM] | IC50 [15] [µM] | IC50 [16] [µM] | IC50 [17] [µM] | IC50 [18] [µM] | IC50 [19] [µM] | IC50 [20] [µM] | other results |
| --- | --- | --- | --- | --- | --- | --- | --- | --- | --- | --- | --- | --- | --- | --- | --- | --- | --- | --- | --- | --- | --- |
| CCOC(=O)c1c(N)sc(CCc2ccc(OC)cc2)c1C(=O)OCC [TR547, 2-Amino-5-[2-(4-methoxy-phenyl)-ethyl]-thiophene-3,4-dicarboxylic acid diethyl ester] | 72 | 72 ± 6.4 | 54 ± 6 | 73 ± 13 | 31 ± 29 | 122 ± 12 | 120 ± 44 | 38 ± 3.5 | 46 ± 25 | 80 ± 3.5 | 26 ± 2.8 | 58 ± 13 | 71 ± 7.8 | 87 ± 21 | 86 ± 5.6 | 41 ± 7.1 | 87 ± 21 | 57 ± 24 | 58 ± 2.8 | 46 ± 3.5 | IC50 [12]: 105 ± 48 µM; IC50 [21]: 81 ± 27 µM; IC50 [22]: 44 ± 3.5 µM; IC50 [23]: 82 ± 26 µM; IC50 [24]: 38 ± 12 µM; IC50 [25]: 65 ± 9.2 µM; IC50 [26]: 89 ± 16 µM; IC50 [27]: 31 ± 5.7 µM; IC50 [28]: 19 ± 10 µM; IC50 [29]: 56 µM; IC50 [30]: 31 ± 4.2 µM; IC50 [31]: 75 ± 35 µM; IC50 [32]: 48 ± 16 µM; IC50 [33]: 51 ± 14 µM |
| COC(=O)c1cc(-c2ccc(OC)cc2)sc1N [TR572, 2-Amino-5-(4-methoxy-phenyl)-thiophene-3-carboxylic acid methyl ester] | 74 | 74 ± 3.5 | 44 ± 9 | 55 ± 30 | 12 ± 1.4 | 179 ± 18 | 26 ± 17 | 40 ± 12 | 11 ± 1.4 | 63 ± 7.1 | 21 ± 0.7 | 61 ± 18 | 25 ± 2.1 | 119 ± 52 | 97 ± 32 | 63 ± 19 | 4.4 ± 1.9 | 9 ± 1.4 | > 100 | 42 ± 3.5 | IC50 [12]: 60 ± 12 µM; IC50 [21]: 71 ± 3.5 µM; IC50 [22]: 34 ± 20 µM; IC50 [23]: 47 ± 3.5 µM; IC50 [24]: 5.5 ± 4 µM; IC50 [25]: 58 ± 6.4 µM; IC50 [26]: 18 ± 9.2 µM; IC50 [27]: 4.3 ± 1.7 µM; IC50 [28]: 1.1 ± 0.84 µM; IC50 [29]: 53 ± 2.1 µM; IC50 [30]: 69 ± 44 µM; IC50 [31]: 42 ± 2.1 µM; IC50 [32]: 28 ± 8.5 µM; IC50 [33]: 42 ± 7.8 µM |
| COC(=O)c1cc(CCc2ccccn2)sc1N [TR596, 2-Amino-5-(2-pyridin-2-yl-ethyl)-thiophene-3-carboxylic acid methyl ester] | 63 | 63 ± 7.8 | 21 ± 4 | 99 | 48 ± 7.1 | ≥ 200 | 142 ± 83 | > 100 | 73 ± 30 | > 200 | 116 ± 49 | 76 ± 35 | 135 ± 92 | 72 ± 45 | 210 ± 17 | 45 ± 3 | 17 ± 13 | > 200 | > 100 | > 100 | IC50 [12]: 101 ± 28 µM; IC50 [21]: > 100 µM; IC50 [22]: 43 ± 9.2 µM; IC50 [23]: > 100 µM; IC50 [24]: 8.5 ± 7.8 µM; IC50 [25]: > 100 µM; IC50 [26]: > 100 µM; IC50 [27]: 8.6 ± 0.21 µM; IC50 [28]: 4.3 ± 3.2 µM; IC50 [29]: > 100 µM; IC50 [30]: 77 ± 27 µM; IC50 [31]: > 100 µM; IC50 [32]: 69 ± 45 µM; IC50 [33]: 46 ± 34 µM |
| COC(=O)c1c(N)sc(CCc2cc(OC)ccc2OC)c1C [TR599, 2-Amino-5-[2-(2,5-dimethoxy-phenyl)-ethyl]-4-methyl-thiophene-3-carboxylic acid methyl ester] | 44 | 44 | 47 ± 16 | 32 ± 15 | 37 ± 29 | 110 ± 31 | 21 ± 1.4 | 58 ± 21 | 18 ± 4.9 | 68 ± 0.7 | 9 ± 0.6 | 49 ± 13 | 34 ± 23 | 11 ± 8.5 | 48 ± 3.5 | 38 ± 11 | 57 ± 38 | 52 ± 17 | 52 ± 2.1 | 47 ± 2.1 | IC50 [21]: 41 ± 4.9 µM; IC50 [22]: 46 ± 3.5 µM; IC50 [23]: 52 ± 46 µM; IC50 [24]: 24 ± 12 µM; IC50 [25]: 43 ± 3.5 µM; IC50 [26]: 35 ± 16 µM; IC50 [27]: 25 ± 5.7 µM; IC50 [28]: 8.7 ± 4.7 µM; IC50 [29]: 46 ± 2.1 µM; IC50 [30]: 28 ± 19 µM; IC50 [31]: 36 ± 2.8 µM; IC50 [32]: 34 ± 22 µM; IC50 [33]: 52 ± 7.8 µM |
